This is an account of results in patent publication US9050345B2, “Pyrrolotriazines as potassium ion channel inhibitors” (BRISTOL-MYERS SQUIBB COMPANY, priority 2013, dated 2015).

T1 sequence (P22460 whole entry): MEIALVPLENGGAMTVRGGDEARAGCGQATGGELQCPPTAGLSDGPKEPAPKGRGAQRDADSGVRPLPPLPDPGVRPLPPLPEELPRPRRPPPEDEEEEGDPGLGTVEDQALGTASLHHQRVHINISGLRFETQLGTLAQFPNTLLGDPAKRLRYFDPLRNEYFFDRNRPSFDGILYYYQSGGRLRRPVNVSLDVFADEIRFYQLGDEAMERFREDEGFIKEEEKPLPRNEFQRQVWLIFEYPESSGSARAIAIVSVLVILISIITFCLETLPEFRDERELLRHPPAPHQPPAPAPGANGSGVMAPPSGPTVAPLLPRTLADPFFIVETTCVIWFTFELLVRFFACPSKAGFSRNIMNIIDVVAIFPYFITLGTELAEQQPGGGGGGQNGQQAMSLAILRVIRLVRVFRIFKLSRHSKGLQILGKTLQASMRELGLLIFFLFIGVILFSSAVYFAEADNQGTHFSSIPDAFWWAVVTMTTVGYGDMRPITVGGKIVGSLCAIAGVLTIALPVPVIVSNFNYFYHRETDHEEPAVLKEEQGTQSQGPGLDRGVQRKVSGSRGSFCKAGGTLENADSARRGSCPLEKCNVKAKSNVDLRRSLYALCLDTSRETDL

This assay concerns the target T1, human KV 1.5 (IKur) (Homo sapiens, UniProt P22460).
T1 construct: expressed in transfected cells
The experiment in a line: block of IKur current in patch clamped L-929 cells expressing human Kv1.5. In kind it is cell-based. As to conditions: L929, 0.3 μM; patch clamped mammalian L-929 cells stably expressing human Kv1.5; read-out: KV1_5% Inh L929 @0.3 μM.
In the case of `COc1ccc(-c2nc(NCc3ccccn3)c3c(-c4ccccc4)ccn3n2)cn1` [Example 111, 2-(6-methoxypyridin-3-yl)-5-phenyl-N-(pyridin-2-ylmethyl)pyrrolo[1,2-f] [1,2,4]triazin-4-amine], the inhibition at 0.3 µM came out at 97%.

For the compound `NC(=O)c1ccc(-c2nc(NCc3ccccn3)c3c(-c4ccccc4)ccn3n2)cc1` [Example 112, 4-(5-phenyl-4-(pyridin-2-ylmethylamino)pyrrolo[1,2-f][1,2,4]triazin-2-yl)benzamide], the inhibition at 0.3 µM was found to be 99%.

Regarding `CC(=O)Nc1ccc(NC(=O)c2nc(NCc3ccccc3)c3c(-c4ccccc4)ccn3n2)cc1` [Example 113, N-(4-acetamidophenyl)-4-(benzylamino)-5-phenylpyrrolo[1,2-f] [1,2,4] triazine-2-carboxamide], the inhibition at 0.3 µM worked out at 88.4%.

On to `NC(=O)c1ccccc1NC(=O)c1nc(NCc2ccccc2)c2c(-c3ccccc3)ccn2n1` [Example 114, 4-(benzylamino)-N-(2-carbamoylphenyl)-5-phenylpyrrolo [1,2-f][1,2,4] triazine-2-carboxamide], for which the inhibition at 0.3 µM is 35.2%.

`NC(=O)c1ccc(NC(=O)c2nc(NCc3ccccc3)c3c(-c4ccccc4)ccn3n2)cc1` [Example 115, 4-(benzylamino)-N-(4-carbamoylphenyl)-5-phenylpyrrolo [1,2-f][1,2,4] triazine-2-carboxamide]: the inhibition at 0.3 µM is 90%.

`NS(=O)(=O)c1cccc(NC(=O)c2nc(NCc3ccccc3)c3c(-c4ccccc4)ccn3n2)c1` [Example 116, 4-(benzylamino)-5-phenyl-N-(3-sulfamoylphenyl) pyrrolo[1,2-f][1,2,4] triazine-2-carboxamide]: the inhibition at 0.3 µM worked out at 89.4%.

As to `NS(=O)(=O)c1ccc(CCNC(=O)c2nc(NCc3ccccc3)c3c(-c4ccccc4)ccn3n2)cc1` [Example 117, 4-(benzylamino)-5-phenyl-N-(4-sulfamoylphenethyl) pyrrolo[1,2-f][1,2,4] triazine-2-carboxamide], the inhibition at 0.3 µM was found to be 86.6%.

Consider `O=C(NC1(CO)CCCC1)c1nc(NCc2ccccc2)c2c(-c3ccccc3)ccn2n1` [Example 118, 4-(benzylamino)-N-(1-(hydroxymethyl)cyclopentyl)-5-phenylpyrrolo [1,2-f][1,2,4] triazine-2-carboxamide], for which the inhibition at 0.3 µM came to 45%.

Consider `O=C(NC[C@H](O)c1ccccc1)c1nc(NCc2ccccc2)c2c(-c3ccccc3)ccn2n1` [Example 119, (R)-4-(benzylamino)-N-(2-hydroxy-2-phenylethyl)-5-phenylpyrrolo [1,2-f][1,2,4] triazine-2-carboxamide], for which the inhibition at 0.3 µM was 67.5%.

For the compound `O=C(c1nc(NCc2ccccc2)c2c(-c3ccccc3)ccn2n1)N1CCN(c2ccc(O)cc2)CC1` [Example 120, (4-(benzylamino)-5-phenylpyrrolo [1,2-f][1,2,4]triazin-2-yl)(4-(4-hydroxyphenyl)piperazin-1-yl)methanone], the inhibition at 0.3 µM worked out at 49%.

Turning to `O=C(Nc1ccc(CCO)cc1)c1nc(NCc2ccccc2)c2c(-c3ccccc3)ccn2n1` [Example 122, 4-(benzylamino)-N-(4-(2-hydroxyethyl)phenyl)-5-phenylpyrrolo [1,2-f][1,2,4] triazine-2-carboxamide], the inhibition at 0.3 µM is 75.8%.

Take `O=C(Nc1ccc(-n2cncn2)cc1)c1nc(NCc2ccccc2)c2c(-c3ccccc3)ccn2n1` [Example 123, N-(4-(1H-1,2,4-triazol-1-yl)phenyl)-4-(benzylamino)-5-phenylpyrrolo [1,2-f][1,2,4] triazine-2-carboxamide]: the inhibition at 0.3 µM was determined as 63.5%.

Consider `O=C(Nc1ccncn1)c1nc(NCc2ccccc2)c2c(-c3ccccc3)ccn2n1` [Example 124, 4-(benzylamino)-5-phenyl-N-(pyrimidin-4-yl)pyrrolo[1,2-f][1,2,4] triazinc-2-carboxamide], for which the inhibition at 0.3 µM amounted to 86.4%.

On to `COc1ccc(CNC(=O)c2nc(NCc3ccccc3)c3c(-c4ccccc4)ccn3n2)c(OC)c1` [Example 125, 4-(benzylamino)-N-(2,4-dimethoxybenzyl)-5-phenylpyrrolo [1,2-f][1,2,4] triazine-2-carboxamide], for which the inhibition at 0.3 µM came to 88.7%.

Regarding `c1ccc(-c2ccn3nc(-c4cc[nH]n4)nc(NCc4ccccn4)c23)cc1` [Example 126, 5-pheny 1-2-(1H-pyrazol-3-yl)-N-(pyridin-2-ylmethyl) pyrrolo[1,2-f][1,2,4] triazin-4-amine], the inhibition at 0.3 µM was found to be 98.5%.

Turning to `NS(=O)(=O)c1cncc(-c2nc(NCc3ccccn3)c3c(-c4ccccc4)ccn3n2)n1` [Example 127, 6-(5-phenyl-4-(pyridin-2-ylmethylamino)pyrrolo[1,2-f][1,2,4]triazin-2-yl)pyrazine-2-sulfonamide], the inhibition at 0.3 µM was found to be 99.3%.

As for `c1ccc(CNc2nc(C3CCOCC3)nn3ccc(-c4ccccc4)c23)cc1` [Example 128, N-benzyl-5-phenyl-2-(tetrahydro-2H-pyran-4-yl)pyrrolo[1,2-f][1,2,4] triazin-4-amine], the inhibition at 0.3 µM was 95.4%.

With `NS(=O)(=O)c1cncc(-c2nc(NCc3ccccc3)c3c(C4=CCOCC4)ccn3n2)c1` [Example 129, 5-(4-(benzylamino)-5-(3,6-dihydro-2H-pyran-4-yl)pyrrolo[2,1-f][1,2,4]triazin-2-yl)pyridine-3-sulfonamide], the inhibition at 0.3 µM was found to be 93.8%.

Take `Nc1ncc(-c2nc(NCc3ccccn3)c3c(-c4ccccc4)ccn3n2)cc1S(N)(=O)=O` [Example 130, 2-amino-5-(5-phenyl-4-((pyridin-2-ylmethyl)amino)pyrrolo [2,1-f][1,2,4]triazin-2-yl)pyridine-3-sulfonamide]: the inhibition at 0.3 µM was 97.6%.

On to `NS(=O)(=O)c1cncc(-c2nc(NCC3CCCCC3)c3c(-c4ccccc4)ccn3n2)c1` [Example 131, 5-(4-((cyclohexylmethyl)amino)-5-phenylpyrrolo [2,1-f][1,2,4]triazin-2-yl)pyridine-3-sulfonamide], for which the inhibition at 0.3 µM came out at 83.9%.

Consider `CCOc1ncc(-c2nc(NCc3ccccn3)c3c(-c4ccccc4)ccn3n2)cc1S(N)(=O)=O` [Example 134, 2-ethoxy-5-(5-phenyl-4-((pyridin-2-ylmethyl)amino)pyrrolo [2,1-f][1,2,4]triazin-2-yl)pyridine-3-sulfonamide], for which the inhibition at 0.3 µM was 95%.

As for `NS(=O)(=O)c1cncc(-c2nc(NCc3ccccn3)c3c(-c4ccccc4C(F)(F)F)ccn3n2)c1` [Example 135, 5-(4-((pyridin-2-ylmethyl)amino)-5-(2-(trifluoromethyl)phenyl)pyrrolo[2,1-f][1,2,4]triazin-2-yl)pyridine-3-sulfonamide], the inhibition at 0.3 µM amounted to 98.5%.

For the compound `NS(=O)(=O)c1cncc(-c2nc(NCc3ccccn3)c3c(-c4ccccc4Cl)ccn3n2)c1` [Example 136, 5-(5-(2-chlorophenyl)-4-((pyridin-2-ylmethyl)amino)pyrrolo [2,1-f][1,2,4]triazin-2-yl)pyridine-3-sulfonamide], the inhibition at 0.3 µM was 98.7%.

As to `COc1ncc(-c2nc(NCc3cnccn3)c3c(-c4ccccc4)ccn3n2)cc1S(N)(=O)=O` [Example 137, 2-methoxy-5-(5-phenyl-4-((pyrazin-2-ylmethyl)amino)pyrrolo [2,1-f][1,2,4]triazin-2-yl)pyridine-3-sulfonamide], the inhibition at 0.3 µM was 82.9%.

`NS(=O)(=O)c1cncc(-c2nc(NCc3ncccc3F)c3c(-c4ccccc4)ccn3n2)c1` [Example 138, 5-(4-(((3-fluoropyridin-2-yl)methyl)amino)-5-phenylpyrrolo [2,1-f][1,2,4]triazin-2-yl) pyridine-3-sulfonamide]: the inhibition at 0.3 µM is 96.2%.

Regarding `COc1cccc(CNc2nc(-c3cnc(OC)c(S(N)(=O)=O)c3)nn3ccc(-c4ccccc4)c23)n1` [Example 139, 2-methoxy-5-(4-(((6-methoxypyridin-2-yl)methyl)amino)-5-phenylpyrrolo [2,1-f][1,2,4]triazin-2-yl)pyridine-3-sulfonamide], the inhibition at 0.3 µM amounted to 98.5%.

As to `COc1cccc(CNc2nc(-c3cncc(S(N)(=O)=O)c3)nn3ccc(-c4ccccc4)c23)n1` [Example 140, 5-(4-(((6-methoxypyridin-2-yl)methyl)amino)-5-phenylpyrrolo [2,1-f][1,2,4]triazin-2-yl)pyridine-3-sulfonamide], the inhibition at 0.3 µM amounted to 99.1%.

For `N#Cc1cccc(F)c1CNc1nc(-c2cncc(S(N)(=O)=O)c2)nn2ccc(-c3ccccc3)c12` [Example 141, 5-(4-((2-cyano-6-fluorobenzyl)amino)-5-phenylpyrrolo [2,1-f][1,2,4]triazin-2-yl)pyridine-3-sulfonamide], the inhibition at 0.3 µM came out at 87.7%.

On to `NS(=O)(=O)c1cncc(-c2nc(NCc3cocn3)c3c(-c4ccccc4)ccn3n2)c1` [Example 142, 5-(4-((oxazol-4-ylmethyl)amino)-5-phenylpyrrolo [2,1-f][1,2,4]triazin-2-yl)pyridine-3-sulfonamide], for which the inhibition at 0.3 µM came to 97.2%.

As to `NS(=O)(=O)c1cncc(-c2nc(N3Cc4ccccc4C3)c3c(-c4ccccc4)ccn3n2)c1` [Example 143, 5-(4-(isoindolin-2-yl)-5-phenylpyrrolo [2,1-f][1,2,4]triazin-2-yl)pyridine-3-sulfonamide], the inhibition at 0.3 µM was determined as 93.8%.

As for `NS(=O)(=O)c1cncc(-c2nc(N3Cc4cccnc4C3)c3c(-c4ccccc4)ccn3n2)c1` [Example 144, 5-(4-(5,7-dihydro-6H-pyrrolo[3,4-b]pyridin-6-yl)-5-phenylpyrrolo [2,1-f][1,2,4]triazin-2-yl)pyridine-3-sulfonamide], the inhibition at 0.3 µM is 99%.

With `NS(=O)(=O)c1cncc(-c2nc(NCC3(O)CCCCC3)c3c(-c4ccccc4)ccn3n2)c1` [Example 145, 5-(4-((1-hydroxycyclohexyl)methylamino)-5-phenylpyrrolo [1,2-f][1,2,4]triazin-2-yl)pyridine-3-sulfonamide], the inhibition at 0.3 µM came out at 62.5%.

Take `NS(=O)(=O)c1cncc(-c2nc(NCc3ncc[nH]3)c3c(-c4ccccc4)ccn3n2)c1` [Example 146, 5-(4-((1H-imidazol-2-yl)methylamino)-5-phenylpyrrolo [1,2-f][1,2,4]triazin-2-yl)pyridine-3-sulfonamide]: the inhibition at 0.3 µM was found to be 78.7%.
